Results: patent EP0554004A2, “Cephem compounds and antibacterial agents” (KATAYAMA SEIYAKUSYO CO. Ltd., priority 1992, dated 1993)

Experiments:
A. calcoaceticos T59 = test: MIC against standard strains (Test Example 3); assay type: cell-based; details: A. calcoaceticos T59 (Test Example 3); read-out: MIC
Experimental: (§1) By using each test strain cultured overnight at 37°C in a Muller-Hinton broth, there was prepared a bacterial solution with a bacterial cell population of 1 x 10^6 CFU/mi of the same bouillon. The bacterial solution was inoculated into the Muller-Hinton agar media each containing respectively one test agent and, after overnight incubation at 37°C, the minimum concentration that inhibited growth of the bacteria was determined and shown as MIC also in Table 1.
(§2) The minimum growth inhibitory concentration was determined for each of the 21 standard strains shown in Table 3, according to the same method as used in Test Example 1.
(§3) In the test, FMOX (flomoxef), CTM (cefotiam) and CEZ (cefazolin) were used as control agents.

A. faecalis ATCC3750 = test: MIC against standard strains (Test Example 3); assay type: cell-based; details: Alcaligenes faecalis; A. faecalis ATCC3750 (Test Example 3); read-out: MIC
Experimental: as §1, §2, §3

B. subtilis ATCC6633 = test: MIC against standard strains (Test Example 3); assay type: cell-based; details: Bacillus subtilis; B. subtilis ATCC6633 (Test Example 3); read-out: MIC
Experimental: as §1, §2, §3

C. freundii ATCC8090 = test: MIC against standard strains (Test Example 3); assay type: cell-based; details: Citrobacter freundii; C. freundii ATCC8090 (Test Example 3); read-out: MIC
Experimental: as §1, §2, §3

E. cloacae ATCC13407 = test: MIC against standard strains (Test Example 3); assay type: cell-based; details: Enterobacter cloacae; E. cloacae ATCC13407 (Test Example 3); read-out: MIC
Experimental: as §1, §2, §3

E. coli CSH2 (RE45) = test: MIC against standard strains (Test Example 3); assay type: cell-based; details: Escherichia coli
Experimental: as §1, §2, §3

E. coli CSH2 (RK1) = test: MIC against standard strains (Test Example 3); assay type: cell-based; details: Escherichia coli
Experimental: as §1, §2, §3

E. coli NIHJ JC-2 = test: MIC against standard strains (Test Example 3); assay type: cell-based; details: Escherichia coli, NIHJJC2; E. coli NIHJ JC-2 (Test Example 3); read-out: MIC
Experimental: as §1, §2, §3

K. pneumoniae IFO3317 = test: MIC against standard strains (Test Example 3); assay type: cell-based; details: Klebsiella pneumoniae; K. pneumoniae IFO3317 (Test Example 3); read-out: MIC
Experimental: as §1, §2, §3

K. pneumoniae No. 42 = test: MIC against standard strains (Test Example 3); assay type: cell-based; details: Klebsiella pneumoniae; K. pneumoniae No. 42 (Test Example 3); read-out: MIC
Experimental: as §1, §2, §3

M. Morganii IFO3848 = test: MIC against standard strains (Test Example 3); assay type: cell-based; details: Morganella morganii; M. Morganii IFO3848 (Test Example 3); read-out: MIC
Experimental: as §1, §2, §3

M. luteus ATCC 9341 = test: MIC against standard strains (Test Example 3); assay type: cell-based; details: Micrococcus luteus, ATCC9341; M. luteus ATCC 9341 (Test Example 3); read-out: MIC
Experimental: as §1, §2, §3

P. aeruginosa NCTC10490 = test: MIC against standard strains (Test Example 3); assay type: cell-based; details: Pseudomonas aeruginosa; P. aeruginosa NCTC10490 (Test Example 3); read-out: MIC
Experimental: as §1, §2, §3

P. mirabilis IFO3849 = test: MIC against standard strains (Test Example 3); assay type: cell-based; details: Proteus mirabilis; P. mirabilis IFO3849 (Test Example 3); read-out: MIC
Experimental: as §1, §2, §3

P. vulugaris OX-19 = test: MIC against standard strains (Test Example 3); assay type: cell-based; details: P. vulugaris OX-19 (Test Example 3); read-out: MIC
Experimental: as §1, §2, §3

S. aureus 167 = test: MIC against standard strains (Test Example 3); assay type: cell-based; details: Staphylococcus aureus; S. aureus 167 (MRSA) (Test Example 3); read-out: MIC
Experimental: as §1, §2, §3

S. aureus 195 = test: MIC against standard strains (Test Example 3); assay type: cell-based; details: Staphylococcus aureus; S. aureus 195 (MRSA) (Test Example 3); read-out: MIC
Experimental: as §1, §2, §3

S. aureus 209p JC-1 = test: MIC against standard strains (Test Example 3); assay type: cell-based; details: Staphylococcus aureus; S. aureus 209p JC-1 (Test Example 3); read-out: MIC
Experimental: as §1, §2, §3

S. aureus Smith = test: MIC against standard strains (Test Example 3); assay type: cell-based; details: Staphylococcus aureus; S. aureus Smith (Test Example 3); read-out: MIC
Experimental: as §1, §2, §3

S. epidemidis IAM1296 = test: MIC against standard strains (Test Example 3); assay type: cell-based; details: S. epidemidis IAM1296 (Test Example 3); read-out: MIC
Experimental: as §1, §2, §3

S. marcescens IAM1184 = test: MIC against standard strains (Test Example 3); assay type: cell-based; details: Serratia marcescens; S. marcescens IAM1184 (Test Example 3); read-out: MIC
Experimental: as §1, §2, §3

clinically isolated MRSA = test: Antibacterial potency against clinically isolated MRSA (Test Example 4); assay type: cell-based, methicillin-resistant Staphylococcus aureus; details: Staphylococcus aureus, 52 strains of clinically isolated MRSA; for MIC50: concentration inhibiting growth of 50% of the strains (Test Example 4), read-out: MIC50; for MIC90: concentration inhibiting growth of 90% of the strains (Test Example 4), read-out: MIC90
Experimental: 52 strains of clinically isolated MRSA were used, and MIC was determined for each of the strains according to the standard method of the Japan Chemotherapical Society as in Test Example 1. The minimum growth inhibitory concentration which inhibited growth of 50% of the strains tested was expressed as MIC50 (µg/ml), and the minimum growth inhibitory concentration which inhibited growth of 90% of the strains was expressed as MIC90 (µg/ml).
MIC 50 and MIC 90 were determined for each of the 52 strains of clinically isolated MRSA according to the same method as used in Test Example 2.
VCM (vancomycin) was used as control agent.

Row | Structure (SMILES) | MIC (A. calcoaceticos T59) [µg/mL] | MIC (A. faecalis ATCC3750) [µg/mL] | MIC (B. subtilis ATCC6633) [µg/mL] | MIC (C. freundii ATCC8090) [µg/mL] | MIC (E. cloacae ATCC13407) [µg/mL] | MIC (E. coli CSH2 (RE45)) [µg/mL] | MIC (E. coli CSH2 (RK1)) [µg/mL] | MIC (E. coli NIHJ JC-2) [µg/mL] | MIC (K. pneumoniae IFO3317) [µg/mL] | MIC (K. pneumoniae No. 42) [µg/mL] | MIC (M. Morganii IFO3848) [µg/mL] | MIC (M. luteus ATCC 9341) [µg/mL] | MIC (P. aeruginosa NCTC10490) [µg/mL] | MIC (P. mirabilis IFO3849) [µg/mL] | MIC (P. vulugaris OX-19) [µg/mL] | MIC (S. aureus 167) [µg/mL] | MIC (S. aureus 195) [µg/mL] | MIC (S. aureus 209p JC-1) [µg/mL] | MIC (S. aureus Smith) [µg/mL] | MIC (S. epidemidis IAM1296) [µg/mL] | other results
1 | CNC(=O)c1ccc[n+](CC2=C(C(=O)[O-])N3C(=O)[C@@H](NC(=O)/C(=N\O)c4csc(N)n4)[C@H]3SC2)c1 [Compound (6), 7β-[2-(2-aminothiazol-4-I)-2-syn-hydroxyiminoacetamido]-3-[(3-N-methylcarbamoyl)-1-pyridinio)methyl]-3-cephem-4-carboxylic acid chloride] | 12.5 | 3.13 | 0.78 | 0.39 | 1.56 | 0.78 | 1.56 | 0.39 | 0.39 | 0.78 | 0.2 | 0.1 | 3.13 | 0.39 | 0.78 | 12.5 | 3.13 | 0.39 | 0.78 | 0.2 | MIC (S. marcescens IAM1184): 0.39 µg/mL; MIC50 (clinically isolated MRSA): 2.15 µg/mL; MIC90 (clinically isolated MRSA): 7.18 µg/mL
2 | Nc1nc(/C(=N/O)C(=O)N[C@@H]2C(=O)N3C(C(=O)[O-])=C(C[n+]4cccc(-c5csc(N)n5)c4)CS[C@H]23)cs1 [Compound (9), 7β-[2-(2-aminothiazol-4-yl)-2-syn-hydroxyiminoacetamido]-3-[[3-(2-aminothiazol-4-yl)-1-pyridinio]methyl]-3-cephem-4-carboxylic acid chloride] | 12.5 | 1.56 | 0.2 | 0.2 | 0.78 | 0.39 | 0.39 | 0.2 | 0.2 | 0.78 | 0.1 | 0.05 | 3.13 | 0.39 | 0.2 | 3.13 | 1.56 | 0.2 | 0.2 | 0.05 | MIC (S. marcescens IAM1184): 0.39 µg/mL; MIC50 (clinically isolated MRSA): 1.48 µg/mL; MIC90 (clinically isolated MRSA): 2.92 µg/mL
3 | CNc1nc(-c2ccc[n+](CC3=C(C(=O)[O-])N4C(=O)[C@@H](NC(=O)/C(=N\O)c5csc(N)n5)[C@H]4SC3)c2)cs1 [Compound (10), 7β-[2-(2-aminothiazol-4-yl)-2-syn-hydroxyiminoacetamido)-3-[[3-(2-methylaminothiazol-4-yl)-1-pyridinio]methyl]-3-cephem-4-carboxylic acid chloride] | 50 | 6.25 | 0.39 | 1.56 | 12.5 | 1.56 | 3.13 | 1.56 | 0.39 | 6.25 | 0.2 | 0.1 | 25 | 3.13 | 0.39 | 12.5 | 3.13 | 0.39 | 0.78 | 0.2 | MIC (S. marcescens IAM1184): 3.13 µg/mL; MIC50 (clinically isolated MRSA): 4.04 µg/mL; MIC90 (clinically isolated MRSA): 8.37 µg/mL
4 | NC(=O)Cc1ccc[n+](CC2=C(C(=O)[O-])N3C(=O)[C@@H](NC(=O)/C(=N\O)c4csc(N)n4)[C@H]3SC2)c1 [Compound (7), 7β-[2-(2-aminothiazol-4-yl)-2-syn-hydroxyiminoacetamido]-3-[(3-carbamoylmethyl-1-pyridinio)methyl]-3-cephem-4-carboxylic acid chloride] | 3.13 | 1.56 | 0.39 | 0.2 | 0.39 | 0.2 | 0.78 | 0.2 | 0.2 | 0.39 | 0.1 | 0.1 | 1.56 | 0.2 | 0.39 | 12.5 | 3.13 | 0.2 | 0.39 | 0.1 | MIC (S. marcescens IAM1184): 0.2 µg/mL; MIC50 (clinically isolated MRSA): 2.04 µg/mL; MIC90 (clinically isolated MRSA): 5.44 µg/mL
5 | Cc1nc(-c2cc[n+](CC3=C(C(=O)[O-])N4C(=O)[C@@H](NC(=O)/C(=N\O)c5csc(N)n5)[C@H]4SC3)cc2)cs1 [Compound (13), 7β-[2-(2-aminothiazol-4-yl)-2-syn-hydroxyiminoacetamido]-3-[[4-(2-methylthiazol-4-yl)-1-pyridinio]methyl]-3-cephem-4-carboxylic acid chloride] | 50 | 1.56 | 0.2 | 0.2 | 0.78 | 0.2 | 0.2 | 0.2 | 0.1 | 0.78 | 0.05 | 0.05 | 12.5 | 0.39 | 0.2 | 6.25 | 3.13 | 0.2 | 0.39 | 0.2 | MIC (S. marcescens IAM1184): 0.39 µg/mL; MIC50 (clinically isolated MRSA): 2.21 µg/mL; MIC90 (clinically isolated MRSA): 5.51 µg/mL
